From paper PMC9369007 (International Journal of Molecular Sciences, 2022)

Tests used:
LSD1 = details: Figure 1, reported LSD1 inhibitors; cited from earlier work
HCT116 cells = assay: MTT cytotoxicity assay, HCT116; details: Homo sapiens, HCT-116, 72 h, read-out: In Vitro Cytotoxicity IC50 HCT116
Method: (§1) The in vitro cytotoxic testing of novel derivatives was performed against different three cancer cell lines, HepG2, MCF-7, and HCT116, using standard MTT assay as previously reported [22, 62, 63, 64].

LSD1 demethylase = LSD1 demethylase (Homo sapiens, UniProt O60341); assay: LSD1 demethylase inhibition assay
Method: The inhibition of LSD1 activity by our tested compounds was evaluated according to a previously reported procedure [65, 66, 67, 68] and as mentioned in the assay kit in Supplementary Materials.

MCF-7 cells = assay: MTT cytotoxicity assay, MCF-7; details: Homo sapiens, MCF7, 72 h, read-out: In Vitro Cytotoxicity IC50 MCF-7
Method: as §1

HepG2 cells = assay: MTT cytotoxicity assay, HepG2; details: Homo sapiens, HepG2, 72 h, read-out: In Vitro Cytotoxicity IC50 HepG2
Method: as §1

HepG2 and MCF-7 cells = assay: DNA fragmentation, diphenylamine test; type: cell-based, human; details: 24 h at IC50 value, untreated control about 4.7 ± 0.2%
Method: Apoptosis is characterized by DNA fragmentation, which occurs in all stages of the process. The percentage of fragmented DNA released into the cytoplasm from apoptotic nuclei was determined using a diphenylamine test.
DNA fragmentation was quantitatively determined using a diphenylamine (DPA) reagent according to the method of Boraschi and Maurizi.

in vitro = details: human, WI38 normal lung fibroblast cells
[1] = LSD1 inhibitory IC50, Table 2, mean ± S.D., at least three tests
[2] = LSD1 inhibition IC50, as quoted in the docking section

Structure (SMILES) | IC50 (LSD1 demethylase; [1]) | melting point | IC50 (LSD1 demethylase; [2]) | IC50 at 72 h (in vitro) | IC50 (LSD1) | IC50 (HCT116 cells) | IC50 (MCF-7 cells) | IC50 (HepG2 cells) | Percentage of DNA fragmentation (HepG2 and MCF-7 cells)
CCCSc1nc(Sc2nnc(C)s2)c2nnn(CCO)c2n1 [Compound 7] | – | – | – | – | 3.93 µM | – | – | – | –
Cc1ccc(Cn2cc(CSC(=S)N3CCN(C(=O)OC(C)(C)C)CC3)nn2)cc1 [Compound 8] | – | – | – | – | 0.65 µM | – | – | – | –
CCn1c(-c2cc(-c3n[nH]c(=S)n3CC)cc(-c3n[nH]c(=S)n3CC)c2)n[nH]c1=S [Compound 19, 3,3′,3″-(benzene-1,3,5-triyl)tris(4-ethyl-1H-1,2,4-triazole-5(4H)-thione)] | 0.17 ± 0.008 µM | 266 to 268 °C | – | – | – | 21.6 ± 0.16 µM | 9.66 ± 0.76 µM | 55.3 ± 0.44 µM | –
S=c1[nH]nc(-c2cc(-c3n[nH]c(=S)n3C3CCCCC3)cc(-c3n[nH]c(=S)n3C3CCCCC3)c2)n1C1CCCCC1 [Compound 20, 3,3′,3″-(benzene-1,3,5-triyl)tris(4-cyclohexyl-1H-1,2,4-triazole-5(4H)-thione)] | 0.137 ± 0.006 µM | 251 to 252 °C | – | – | – | 10.1 ± 0.37 µM | 13.7 ± 0.41 µM | 2.65 ± 0.69 µM | approximately 28.5 ± 1.5%
C=CCn1c(-c2cc(-c3n[nH]c(=S)n3CC=C)cc(-c3n[nH]c(=S)n3CC=C)c2)n[nH]c1=S [Compound 21, 3,3′,3″-(benzene-1,3,5-triyl)tris(4-allyl-1H-1,2,4-triazole-5(4H)-thione)] | 0.32 ± 0.016 µM | 287 to 288 °C | – | – | – | 3.56 ± 0.22 µM | 5.83 ± 0.18 µM | 2.36 ± 0.34 µM | –
S=c1[nH]nc(-c2cc(-c3n[nH]c(=S)n3Cc3ccccc3)cc(-c3n[nH]c(=S)n3Cc3ccccc3)c2)n1Cc1ccccc1 [Compound 22, 3,3′,3″-(benzene-1,3,5-triyl)tris(4-benzyl-1H-1,2,4-triazole-5(4H)-thione)] | 0.074 ± 0.002 µM | 240 to 241 °C | 0.0464 µM | 16 ± 0.52 µM | – | 5.27 ± 0.16 µM | 2.65 ± 0.23 µM | 8.23 ± 0.85 µM | –
CNc1nnc(-c2cc(-c3nnc(NC)s3)cc(-c3nnc(NC)s3)c2)s1 [Compound 24, 5,5′,5″-(benzene-1,3,5-triyl)tris(N-methyl-1,3,4-thiadiazol-2-amine)] | 0.45 ± 0.022 µM | 247 to 248 °C | – | – | – | 18.1 ± 1.05 µM | 9.2 ± 0.31 µM | 6.47 ± 0.69 µM | –
c1ccc(Nc2nnc(-c3cc(-c4nnc(Nc5ccccc5)s4)cc(-c4nnc(Nc5ccccc5)s4)c3)s2)cc1 [Compound 28, 5,5′,5″-(benzene-1,3,5-triyl)tris(N-phenyl-1,3,4-thiadiazol-2-amine)] | 0.21 ± 0.01 µM | 204 to 205 °C | – | – | – | 110 ± 0.85 µM | 2.34 ± 2.3 µM | 25.6 ± 0.18 µM | –
CC(=O)O[C@H]1C(=O)[C@@]2(C)[C@H]([C@H](OC(=O)c3ccccc3)[C@]3(O)C[C@H](OC(=O)[C@H](O)[C@@H](NC(=O)c4ccccc4)c4ccccc4)C(C)=C1C3(C)C)[C@]1(OC(C)=O)CO[C@@H]1C[C@@H]2O [Taxol, reference compound] | – | – | – | 11.8 ± 0.44 µM | – | 7.96 ± 0.38 µM | 7.8 ± 0.42 µM | 4.44 ± 0.24 µM | –

Second part, led by results:

IC50 (LSD1 demethylase; [1]) | melting point | IC50 (LSD1 demethylase; [2]) | IC50 at 72 h (in vitro) | Structure (SMILES) | IC50 (LSD1) | IC50 (HCT116 cells) | IC50 (MCF-7 cells) | IC50 (HepG2 cells) | Percentage of DNA fragmentation (HepG2 and MCF-7 cells)
1.51 ± 0.075 µM | 279 to 281 °C | – | – | Cn1c(-c2cc(-c3n[nH]c(=S)n3C)cc(-c3n[nH]c(=S)n3C)c2)n[nH]c1=S [Compound 18, 3,3′,3″-(benzene-1,3,5-triyl)tris(4-methyl-1H-1,2,4-triazole-5(4H)-thione)] | – | 38.6 ± 0.75 µM | 23.9 ± 0.52 µM | 26.1 ± 0.76 µM | –
0.065 ± 0.003 µM | 229 to 230 °C | 0.0651 µM | – | S=c1[nH]nc(-c2cc(-c3n[nH]c(=S)n3-c3ccccc3)cc(-c3n[nH]c(=S)n3-c3ccccc3)c2)n1-c1ccccc1 [Compound 23, 3,3′,3″-(benzene-1,3,5-triyl)tris(4-phenyl-1H-1,2,4-triazole-5(4H)-thione)] | – | 2.01 ± 0.91 µM | 26.1 ± 0.69 µM | 5.49 ± 0.38 µM | –
0.14 ± 0.007 µM | 233 to 234 °C | – | – | CCNc1nnc(-c2cc(-c3nnc(NCC)s3)cc(-c3nnc(NCC)s3)c2)s1 [Compound 25, 5,5′,5″-(benzene-1,3,5-triyl)tris(N-ethyl-1,3,4-thiadiazol-2-amine)] | – | 28.9 ± 0.32 µM | 28.1 ± 1.1 µM | 13 ± 0.71 µM | –
0.311 ± 0.015 µM | 218 to 219 °C | – | – | c1c(-c2nnc(NC3CCCCC3)s2)cc(-c2nnc(NC3CCCCC3)s2)cc1-c1nnc(NC2CCCCC2)s1 [Compound 26, 5,5′,5″-(benzene-1,3,5-triyl)tris(N-cyclohexyl-1,3,4-thiadiazol-2-amine)] | – | 17.6 ± 0.71 µM | 17.1 ± 3.1 µM | 95.7 ± 3.1 µM | –
